Where two headings read alike, the source gives them in different places. *1 amine or outer side, *2 acyl side, *3 side chain or, on linkers, in order; H or OH if unused. Where a SMILES comes first, the peptide text is derived from it. Bridges are numbered along the chain shown (N, C = ends). [ ]: non-standard residue; d: D form. The star is where a group is joined. ξ: configuration not given here. Ala(piperidin-4-yl) = O=C([C@H](CC1CCN([*:3])CC1)N[*:1])[*:2]; DOTA = O=C(O)CN1CCN(CC(=O)O)CCN(CC(=O)*)CCN(CC(=O)O)CC1; Ala(morpholin-4-yl) = N[C@@H](CN1CCOCC1)C(=O)O; Bip = N[C@@H](Cc1ccc(-c2ccccc2)cc1)C(=O)O; 2Nal = N[C@@H](Cc1ccc2ccccc2c1)C(=O)O; Gly(4-THP) = N[C@H](C(=O)O)C1CCOCC1; Nva(3-Et) = CCC(CC)[C@H](N)C(=O)O; X4 = O=C(C(CC1CCNCC1)N[*:1])[*:2]; AllylGly = C=CC[C@H](N)C(=O)O; Chg = N[C@H](C(=O)O)C1CCCCC1; Tle = CC(C)(C)[C@H](N)C(=O)O; Aze = O=C(O)[C@@H]1CCN1; ξC = NC(CS)C(=O)O; Sar = CNCC(=O)O
Biological target: T1, DLL3 (Homo sapiens, UniProt Q9NYJ7)
T1 sequence (Q9NYJ7 27-618): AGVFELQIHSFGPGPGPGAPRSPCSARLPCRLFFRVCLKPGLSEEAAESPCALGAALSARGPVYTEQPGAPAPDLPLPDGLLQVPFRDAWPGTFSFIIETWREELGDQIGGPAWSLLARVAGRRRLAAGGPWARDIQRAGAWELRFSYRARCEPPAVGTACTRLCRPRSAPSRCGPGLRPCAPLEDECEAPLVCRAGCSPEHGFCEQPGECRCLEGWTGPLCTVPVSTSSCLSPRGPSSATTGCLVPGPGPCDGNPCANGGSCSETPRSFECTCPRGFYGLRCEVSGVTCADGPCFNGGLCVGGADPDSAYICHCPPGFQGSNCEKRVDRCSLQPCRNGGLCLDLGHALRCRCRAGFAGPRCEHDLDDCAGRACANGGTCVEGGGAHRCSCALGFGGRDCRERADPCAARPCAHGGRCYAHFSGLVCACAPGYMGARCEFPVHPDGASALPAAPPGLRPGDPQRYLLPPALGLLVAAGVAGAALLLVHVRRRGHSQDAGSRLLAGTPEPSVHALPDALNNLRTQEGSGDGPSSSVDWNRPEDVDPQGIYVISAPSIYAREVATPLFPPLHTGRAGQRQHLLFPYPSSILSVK
Assay: SPR KD, biotinylated human DLL3 on streptavidin chip (Table 8)
Set-up: biotin (biotinylated)
Details: biotinylated human DLL3 on streptavidin sensor chip, 25° C., 1:1 binding model
Text: Biotinylated target ligand human DLL3 was immobilized on a streptavidin sensor chip. A reference surface was set up for nonspecific binding and refractive index changes. […] Sensorgram curves were fitted with 1:1 binding model, and affinity and kinetic parameters were obtained using Biacore Insight evaluation 4.0. software.

SMILES | Kd (SPR KD) [nM] | Kd (read-out: SPR KD) [nM]
CC[C@H](C)[C@H](NC(=O)[C@@H](NC(=O)[C@H](Cc1c[nH]c2ccccc12)NC(C)=O)[C@@H](C)O)C(=O)N[C@H]1CSSC[C@@H](C(=O)N[C@@H](Cc2c[nH]c3ccccc23)C(=O)N2CCC[C@H]2C(=O)N[C@H](CCCCNC(=O)CN2CCN(CC(=O)O)CCN(CC(=O)O)CCN(CC(=O)O)CC2)C(N)=O)NC(=O)[C@H](CC(=O)O)NC(=O)[C@H](CCCCNC(=O)CN2CCN(CC(=O)O)CCN(CC(=O)O)CCN(CC(=O)O)CC2)NC(=O)[C@H](Cc2ccc3ccccc3c2)NC(=O)[C@H](CC(N)=O)NC(=O)[C@H](CC(N)=O)NC1=O [compound 253, Ac-W-T-I-C(3)-N-N-(2Nal)-Lys(DOTA)-D-C(3)-W-P-[D-Lys(DOTA)]-NH2] (Ac-WTICNN[2Nal]K(DOTA)DCWP[dK](DOTA)-NH2; disulfide 4-10) | < 1 | 
CC[C@H](C)[C@H](NC(=O)[C@@H](NC(=O)[C@H](Cc1c[nH]c2ccccc12)NC(C)=O)[C@@H](C)O)C(=O)N[C@H]1CSSC[C@@H](C(=O)N[C@@H](Cc2c[nH]c3ccccc23)C(=O)N2CCC[C@H]2C(N)=O)NC(=O)[C@H](CC(=O)O)NC(=O)[C@H](CCCCNC(=O)CN2CCN(CC(=O)O)CCN(CC(=O)O)CCN(CC(=O)O)CC2)NC(=O)[C@H](Cc2ccc3ccccc3c2)NC(=O)[C@H](CC(N)=O)NC(=O)[C@H](CC(N)=O)NC1=O [compound 254] (Ac-WTICNN[2Nal]K(DOTA)DCWP-NH2; disulfide 4-10) |  | < 1
CC(=O)N[C@@H](Cc1c[nH]c2ccccc12)C(=O)N[C@H](C(=O)N[C@H](C(=O)N[C@H]1CSSC[C@@H](C(=O)N[C@@H](Cc2c[nH]c3ccccc23)C(=O)N2CCC[C@H]2C(N)=O)NC(=O)[C@H](CC(=O)O)NC(=O)[C@H](CCCCNC(=O)CN2CCN(CC(=O)O)CCN(CC(=O)O)CCN(CC(=O)O)CC2)NC(=O)[C@H](Cc2ccc3ccccc3c2)NC(=O)[C@H](CC(N)=O)NC(=O)C(CN2CCOCC2)NC1=O)C(C)(C)C)[C@@H](C)O (stereo partly drawn) [compound 309, Ac-W-T-(Tbg)-C(3)-[3-(1-morpholinyl)-Ala]-N-(2Nal)-Lys(DOTA)-D-C(3)-W-P-CONH2] |  | < 1
CC(=O)N[C@@H](Cc1c[nH]c2ccccc12)C(=O)N[C@H](C(=O)N[C@H](C(=O)N[C@H]1CSSC[C@@H](C(=O)N[C@@H](Cc2c[nH]c3ccccc23)C(=O)N2CCC[C@H]2C(N)=O)NC(=O)[C@H](CC(=O)O)NC(=O)[C@H](CCCCNC(=O)CN2CCN(CC(=O)O)CCN(CC(=O)O)CCN(CC(=O)O)CC2)NC(=O)[C@H](Cc2ccc3ccccc3c2)NC(=O)[C@H](CC(N)=O)NC(=O)C(CC2CCNCC2)NC1=O)C1CCOCC1)[C@@H](C)O (stereo partly drawn) [compound 319, Ac-W-T-(THPG)-C(3)-[3-(4-piperidinyl)-Ala]-N-(2Nal)-Lys(DOTA)-D-C(3)-W-P-CONH2] (Ac-WT[Gly(4-THP)]C[X4]N[2Nal]K(DOTA)DCWP-NH2; disulfide 4-10) |  | < 1
CC(=O)N[C@@H](Cc1c[nH]c2ccccc12)C(=O)N[C@H](C(=O)N[C@H](C(=O)N[C@H]1CSSC[C@@H](C(=O)N[C@@H](Cc2c[nH]c3ccccc23)C(=O)N2CCC[C@H]2C(N)=O)NC(=O)[C@H](CC(=O)O)NC(=O)[C@H](CCCCNC(=O)CN2CCN(CC(=O)O)CCN(CC(=O)O)CCN(CC(=O)O)CC2)NC(=O)[C@H](Cc2ccc3ccccc3c2)NC(=O)[C@H](CC(N)=O)NC(=O)[C@H](CN2CCOCC2)NC1=O)C1CCCCC1)[C@@H](C)O [compound 325, Ac-W-T-(Chg)-C(3)-[3-(1-morpholinyl)-Ala]-N-(2Nal)-Lys(DOTA)-D-C(3)-W-P-CONH2] (Ac-WT[Chg]C[Ala(morpholin-4-yl)]N[2Nal]K(DOTA)DCWP-NH2; disulfide 4-10) | < 1 | 
CC(=O)N[C@@H](Cc1c[nH]c2ccccc12)C(=O)N[C@H](C(=O)N[C@H](C(=O)N[C@H]1CSSC[C@@H](C(=O)N[C@@H](Cc2c[nH]c3ccccc23)C(=O)N2CCC[C@H]2C(N)=O)NC(=O)[C@H](C)NC(=O)[C@@H](CCCCNC(=O)CN2CCN(CC(=O)O)CCN(CC(=O)O)CCN(CC(=O)O)CC2)NC(=O)[C@H](Cc2ccc3ccccc3c2)NC(=O)[C@H](CC(N)=O)NC(=O)[C@H](CC2CCNCC2)NC1=O)C1CCOCC1)[C@@H](C)O [compound 327, Ac-W-T-(THPG)-C(3)-[3-(4-piperidinyl)-Ala]-N-(2Nal)-Lys(DOTA)-(Ala)-C(3)-W-P-CONH2] (Ac-WT[Gly(4-THP)]C[Ala(piperidin-4-yl)]N[2Nal][dK](DOTA)ACWP-NH2; disulfide 4-10) |  | < 1
CC(=O)N[C@@H](Cc1c[nH]c2ccccc12)C(=O)N[C@H](C(=O)N[C@H](C(=O)N[C@H]1CSSCC(C(=O)N[C@@H](Cc2c[nH]c3ccccc23)C(=O)N2CCC[C@H]2C(N)=O)NC(=O)[C@H]([C@@H](C)O)NC(=O)[C@@H](CCCCNC(=O)CN2CCN(CC(=O)O)CCN(CC(=O)O)CCN(CC(=O)O)CC2)NC(=O)[C@H](Cc2ccc3ccccc3c2)NC(=O)[C@H](CC(N)=O)NC(=O)[C@H](CC2CCNCC2)NC1=O)C1CCOCC1)[C@@H](C)O (stereo partly shown) [compound 328, Ac-W-T-(THPG)-C(3)-[3-(4-piperidinyl)-Ala]-N-(2Nal)-Lys(DOTA)-(Thr)-C(3)-W-P-CONH2] (Ac-WT[Gly(4-THP)]C[Ala(piperidin-4-yl)]N[2Nal][dK](DOTA)T[ξC]WP-NH2; disulfide 4-10) |  | < 1
CC[C@H](C)[C@H](NC(=O)[C@@H](NC(=O)[C@H](Cc1c[nH]c2ccccc12)NC(C)=O)[C@@H](C)O)C(=O)N[C@H]1CC=CC[C@@H](C(=O)N[C@@H](Cc2c[nH]c3ccccc23)C(=O)N2CCC[C@H]2C(N)=O)NC(=O)[C@H](CC(=O)O)NC(=O)[C@H](Cc2cnc[nH]2)NC(=O)[C@H](Cc2c[nH]c3ccccc23)NC(=O)[C@H](CC(N)=O)NC(=O)[C@H](CC(N)=O)NC1=O [compound 331] (Ac-WTI[AllylGly]NNWHD[AllylGly]WP-NH2; staple 4-10) |  | 100 to 300
CC[C@H](C)[C@H](NC(=O)[C@@H](NC(=O)[C@H](Cc1ccc(-c2ccccc2)cc1)NC(C)=O)[C@@H](C)O)C(=O)N[C@H]1CSSC[C@@H](C(=O)N[C@@H](Cc2c[nH]c3ccccc23)C(=O)N2CCC[C@H]2C(=O)O)NC(=O)[C@H](CC(=O)O)NC(=O)[C@H](Cc2c[nH]cn2)NC(=O)[C@H](Cc2c[nH]c3ccccc23)NC(=O)[C@H](CC(N)=O)NC(=O)[C@H](CC(N)=O)NC1=O [compound 333, Ac-(BIP)-T-I-C(3)-N-N-W-H-D-C(3)-W-P-CONH2] (Ac-[Bip]TICNNWHDCWP-OH; disulfide 4-10) |  | 100 to 300
CC[C@H](C)[C@H](NC(=O)[C@@H](NC(=O)[C@H](Cc1c[nH]c2ccccc12)NC(C)=O)[C@@H](C)O)C(=O)N[C@H]1CSSC[C@@H](C(=O)N[C@@H](Cc2c[nH]c3ccccc23)C(=O)N(C)CC(N)=O)NC(=O)[C@H](CC(=O)O)NC(=O)[C@H](Cc2cnc[nH]2)NC(=O)[C@H](Cc2c[nH]c3ccccc23)NC(=O)[C@H](CC(N)=O)NC(=O)[C@H](CC(N)=O)NC1=O [compound 334, Ac-W-T-I-C(3)-N-N-W-H-D-C(3)-W-(Sar)-CONH2] (Ac-WTICNNWHDCW[Sar]-NH2; disulfide 4-10) |  | 10 to 100
CC[C@H](C)[C@H](NC(=O)[C@@H](NC(=O)[C@H](Cc1c[nH]c2ccccc12)NC(C)=O)[C@@H](C)O)C(=O)N[C@H]1CSSC[C@@H](C(=O)N[C@@H](Cc2c[nH]c3ccccc23)C(=O)N2CC[C@H]2C(N)=O)NC(=O)[C@H](CC(=O)O)NC(=O)[C@H](Cc2cnc[nH]2)NC(=O)[C@H](Cc2c[nH]c3ccccc23)NC(=O)[C@H](CC(N)=O)NC(=O)[C@H](CC(N)=O)NC1=O [compound 335, Ac-W-T-I-C(3)-N-N-W-H-D-C(3)-W-(Aze)-CONH2] (Ac-WTICNNWHDCW[Aze]-NH2; disulfide 4-10) |  | 1 to 10
CC(=O)N[C@@H](Cc1c[nH]c2ccccc12)C(=O)N[C@H](C(=O)N[C@H](C(=O)N[C@H]1CSSC[C@@H](C(=O)N[C@@H](Cc2c[nH]c3ccccc23)C(=O)N2CCC[C@H]2C(N)=O)NC(=O)[C@H](CC(=O)O)NC(=O)[C@H](Cc2cnc[nH]2)NC(=O)[C@H](Cc2c[nH]c3ccccc23)NC(=O)[C@H](CC(N)=O)NC(=O)[C@H](CC(N)=O)NC1=O)C(C)(C)C)[C@@H](C)O [compound 336, Ac-W-T-(Tbg)-C(3)-N-N-W-H-D-C(3)-W-P-CONH2] (Ac-WT[Tle]CNNWHDCWP-NH2; disulfide 4-10) |  | 1 to 10
CCC(CC)[C@H](NC(=O)[C@@H](NC(=O)[C@H](Cc1c[nH]c2ccccc12)NC(C)=O)[C@@H](C)O)C(=O)N[C@H]1CSSC[C@@H](C(=O)N[C@@H](Cc2c[nH]c3ccccc23)C(=O)N2CCC[C@H]2C(N)=O)NC(=O)[C@H](CC(=O)O)NC(=O)[C@H](Cc2cnc[nH]2)NC(=O)[C@H](Cc2c[nH]c3ccccc23)NC(=O)[C@H](CC(N)=O)NC(=O)[C@H](CC(N)=O)NC1=O [compound 337, Ac-W-T-(Env)-C(3)-N-N-W-H-D-C(3)-W-P-CONH2] (Ac-WT[Nva(3-Et)]CNNWHDCWP-NH2; disulfide 4-10) |  | 1 to 10
